Experiments:
[1] = tested on: subject's axilla malodour; test: Sensory test comparing zinc neodecanoate and zinc ricinoleate: perceived malodour intensity of axillae rated by trained panel; type: in vivo, human; settings: for perceived malodour intensity: 0-100 line scale, 24 hours after application of 1.0 g aerosol (4% zinc salt, 12% cyclomethicone, 84% propellant) to axilla, 10 male subjects
Experimental: Aerosols were prepared using the following two test formulations, respectively: • 4% zinc neodecanoate, 12% cyclomethicone, 84% propellant • 4% zinc ricinoleate, 12% cyclomethicone, 84% propellant (propellant=isobutane/propane mix)
5 days prior to testing, the male subjects substituted their normal body wash with an unperfumed product (Sanex 0% Bodywash) and were asked to only use a specific deodorant supplied (Lynx Attract for Him).
On the morning before the test, the male subjects were asked to shower using an unperfumed shower gel provided and not use any antiperspirant product or apply any other fragranced products.
Subjects reported to a panel suite in the morning in two groups for test product application.
The administrator applied 1.0 g of each product to each subject's axilla. Each subject wore both of the test formulations (one on each axilla region). The manner in which each test formulation was applied (left or right axilla) was randomised. Each of a subject's axilla was then coded with a random code number.
The subjects were asked not to shower until after the test had been completed the next day. The subjects were also provided with a list of rules, by which they had to abide for the duration of the test. The rules included no swimming and no gym activity between test formulation application and assessment.
The subjects' axillae were thereafter tested by sensory panellists. The members of the sensory panels had been selected on a basis of their olfactory sensory acuity and had thereafter received training for a period of 4-6 months. […]
The sensory panellists were asked to rate the perceived malodour intensity for each of the subject's axilla using a 0-100 line scale. The order of samples assessed was pre-determined using a balanced randomisation. The axillae were assessed in a sequential monadic way. […]
The subjects were separated into two groups to be assessed by the panellists and each group was assessed by 22 panellists.
The data was analysed using an analysis of variance and multiple comparison test with a confidence level of 95%.

[2] = Solubility test of zinc salts in model aerosol base formulation; type: physicochemical; settings: 4% zinc salt, 12% cyclomethicone, 84% pentane; agitated several hours at room temperature, stood overnight
Text: The solubility of several zinc salts was explored using the following model aerosol base formulation: • 4% zinc salt • 12% cyclomethicone • 84% pentane
(Pentane was used as a surrogate for isobutane/propane mix as it is easier to handle in a laboratory.)
Each salt and aerosol formulation was placed in a sealed glass vial that was agitated for several hours at room temperature. The resulting suspensions/solutions were allowed to stand overnight and any remaining solid matter present was noted.

[3] = White marks: visible solid residue on black cloth after aerosol spraying; type: physicochemical; settings: approximately 3 g aerosol (4% zinc neodecanoate, 12% cyclomethicone, 84% propellant) dispensed; compared with zinc ricinoleate and aluminium chlorohydrate aerosols
Experimental: Aerosols were prepared using the following three test formulations, respectively: • 4% zinc neodecanoate, 12% cyclomethicone, 84% propellant • 4% zinc ricinoleate, 12% cyclomethicone, 84% propellant • 10% aluminium chlorohydrate, 0.8% disteardimonium hectorite, 12% cyclomethicone, 76.2% propellant (propellant=isobutane/propane mix)
Several card templates were prepared where a large X-shaped hole was present in each template. Each template was then placed over a black piece of cloth. The aerosols were shaken well, and then approximately 3 g of one of the three aerosols was dispensed over each template hole. Several minutes were allowed for any propellant to evaporate and the presence of any visible solid residues was noted.

| Substance | perceived malodour intensity [1] | malodour intensity compared with underarms treated with zinc ricinoleate ([1]; analysis of variance and multiple comparison test, confidence level 95%, 24 hours after application) | remaining solid matter present (solubility) [2] | visible solid residue on black cloth [3] |
| --- | --- | --- | --- | --- |
| zinc neodecanoate | 12.1 (+/−0.8) | significantly lower malodour intensity | without any solid present | did not leave a powdered residue |
| zinc ricinoleate [reference compound] | 14.0 (+/−0.8) |  |  |  |

Reference: patent US20200046619A1, “Deodorizing Composition Comprising Zinc Neodecanoate” (GIVAUDAN SA, priority 2016, published 2020)
